Laboratory results: paper PMC10176470, “Engaging a Non-catalytic Cysteine Residue Drives Potent and Selective Inhibition of Caspase-6” (Journal of the American Chemical Society, 2023)

Columns and labels:
Assay type in all cases: cell-based
[1] = target: proteins of HEK293T cells transiently overexpressing caspase-6 (Homo sapiens, UniProt O00571); conditions: exp_ref Probe; protein DDX3X (O00571); analysis C6
[2] = target: proteins of HEK293T cells transiently overexpressing caspase-6 (Homo sapiens, UniProt O14980); conditions: protein XPO1 (O14980); exp_ref Probe; analysis C6
proteins of HEK293T cells transiently overexpressing caspase-6 (Homo sapiens, UniProt O14980), sequence (O14980 whole entry): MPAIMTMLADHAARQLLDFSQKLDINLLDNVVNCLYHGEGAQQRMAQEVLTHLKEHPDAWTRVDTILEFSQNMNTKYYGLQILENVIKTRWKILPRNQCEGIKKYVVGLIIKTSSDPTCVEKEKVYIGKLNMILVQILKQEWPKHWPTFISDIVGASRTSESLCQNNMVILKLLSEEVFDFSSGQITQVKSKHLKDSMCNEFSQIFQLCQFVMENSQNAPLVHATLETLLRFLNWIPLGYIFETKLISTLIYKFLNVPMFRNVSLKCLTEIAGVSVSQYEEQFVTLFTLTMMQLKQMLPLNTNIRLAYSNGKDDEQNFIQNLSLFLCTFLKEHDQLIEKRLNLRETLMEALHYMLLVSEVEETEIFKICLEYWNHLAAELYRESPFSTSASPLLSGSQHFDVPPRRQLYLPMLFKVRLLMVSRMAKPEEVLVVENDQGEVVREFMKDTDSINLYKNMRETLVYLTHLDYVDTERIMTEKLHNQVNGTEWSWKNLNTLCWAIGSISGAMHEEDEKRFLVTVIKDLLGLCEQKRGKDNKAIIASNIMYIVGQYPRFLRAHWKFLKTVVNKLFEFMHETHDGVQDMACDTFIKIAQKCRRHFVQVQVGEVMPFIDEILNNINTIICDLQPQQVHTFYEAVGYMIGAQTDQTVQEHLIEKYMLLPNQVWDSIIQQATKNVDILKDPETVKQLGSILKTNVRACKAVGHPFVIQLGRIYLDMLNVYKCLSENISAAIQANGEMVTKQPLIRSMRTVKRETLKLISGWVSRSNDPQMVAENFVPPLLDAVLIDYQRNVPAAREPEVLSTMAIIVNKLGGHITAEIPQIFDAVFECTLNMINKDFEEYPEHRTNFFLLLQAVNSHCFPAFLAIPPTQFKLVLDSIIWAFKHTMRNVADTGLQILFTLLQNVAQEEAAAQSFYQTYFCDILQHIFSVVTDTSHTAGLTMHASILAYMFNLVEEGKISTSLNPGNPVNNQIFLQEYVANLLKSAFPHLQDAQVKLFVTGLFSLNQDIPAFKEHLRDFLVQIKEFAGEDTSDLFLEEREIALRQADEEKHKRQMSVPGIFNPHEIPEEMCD

[3] = target: proteins of HEK293T cells transiently overexpressing caspase-6 (Homo sapiens, UniProt P02768); conditions: Probe; protein ALB P02768
[4] = target: proteins of HEK293T cells transiently overexpressing caspase-6 (Homo sapiens, UniProt P31946); conditions: exp_ref Probe; protein YWHAB (P31946); analysis C6
[5] = target: T1, proteins of HEK293T cells transiently overexpressing caspase-6 (Homo sapiens, UniProt P40926); conditions: protein MDH2 (P40926)
T1 sequence (P40926 25-338): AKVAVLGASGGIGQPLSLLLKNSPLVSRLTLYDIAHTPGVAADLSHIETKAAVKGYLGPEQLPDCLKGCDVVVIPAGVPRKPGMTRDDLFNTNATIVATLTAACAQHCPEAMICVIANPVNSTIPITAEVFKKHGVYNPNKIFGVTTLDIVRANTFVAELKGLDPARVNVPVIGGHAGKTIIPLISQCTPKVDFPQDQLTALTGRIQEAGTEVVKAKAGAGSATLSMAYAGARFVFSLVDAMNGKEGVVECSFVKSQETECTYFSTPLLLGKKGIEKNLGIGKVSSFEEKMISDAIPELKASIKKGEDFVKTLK

[6] = target: proteins of HEK293T cells transiently overexpressing caspase-6 (Homo sapiens, UniProt P43243); conditions: exp_ref Probe; protein MATR3 (P43243); analysis C6
[7] = target: proteins of HEK293T cells transiently overexpressing caspase-6 (Homo sapiens, UniProt P46777); conditions: exp_ref Probe; protein RPL5 (P46777); analysis C6
[8] = target: proteins of HEK293T cells transiently overexpressing caspase-6 (Homo sapiens, UniProt P49368); conditions: exp_ref Probe; protein CCT3 (P49368); analysis C6
[9] = target: proteins of HEK293T cells transiently overexpressing caspase-6 (Homo sapiens, UniProt P49411); conditions: exp_ref Probe; protein TUFM (P49411); analysis C6
[10] = target: proteins of HEK293T cells transiently overexpressing caspase-6 (Homo sapiens, UniProt P53396); conditions: exp_ref Probe; protein ACLY (P53396); analysis C6
[11] = target: T2, proteins of HEK293T cells transiently overexpressing caspase-6 (Homo sapiens, UniProt P62258); conditions: protein YWHAE (P62258)
T2 sequence (P62258 1-255): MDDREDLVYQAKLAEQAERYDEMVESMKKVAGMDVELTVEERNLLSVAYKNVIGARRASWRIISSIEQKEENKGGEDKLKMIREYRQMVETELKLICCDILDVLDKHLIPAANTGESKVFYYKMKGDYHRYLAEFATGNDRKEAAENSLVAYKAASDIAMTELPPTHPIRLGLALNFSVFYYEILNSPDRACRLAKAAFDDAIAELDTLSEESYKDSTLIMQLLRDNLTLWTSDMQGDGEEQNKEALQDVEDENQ

[12] = target: proteins of HEK293T cells transiently overexpressing caspase-6 (Homo sapiens, UniProt Q04637); conditions: protein EIF4G1 (Q04637)
proteins of HEK293T cells transiently overexpressing caspase-6 (Homo sapiens, UniProt Q04637), sequence (Q04637 whole entry): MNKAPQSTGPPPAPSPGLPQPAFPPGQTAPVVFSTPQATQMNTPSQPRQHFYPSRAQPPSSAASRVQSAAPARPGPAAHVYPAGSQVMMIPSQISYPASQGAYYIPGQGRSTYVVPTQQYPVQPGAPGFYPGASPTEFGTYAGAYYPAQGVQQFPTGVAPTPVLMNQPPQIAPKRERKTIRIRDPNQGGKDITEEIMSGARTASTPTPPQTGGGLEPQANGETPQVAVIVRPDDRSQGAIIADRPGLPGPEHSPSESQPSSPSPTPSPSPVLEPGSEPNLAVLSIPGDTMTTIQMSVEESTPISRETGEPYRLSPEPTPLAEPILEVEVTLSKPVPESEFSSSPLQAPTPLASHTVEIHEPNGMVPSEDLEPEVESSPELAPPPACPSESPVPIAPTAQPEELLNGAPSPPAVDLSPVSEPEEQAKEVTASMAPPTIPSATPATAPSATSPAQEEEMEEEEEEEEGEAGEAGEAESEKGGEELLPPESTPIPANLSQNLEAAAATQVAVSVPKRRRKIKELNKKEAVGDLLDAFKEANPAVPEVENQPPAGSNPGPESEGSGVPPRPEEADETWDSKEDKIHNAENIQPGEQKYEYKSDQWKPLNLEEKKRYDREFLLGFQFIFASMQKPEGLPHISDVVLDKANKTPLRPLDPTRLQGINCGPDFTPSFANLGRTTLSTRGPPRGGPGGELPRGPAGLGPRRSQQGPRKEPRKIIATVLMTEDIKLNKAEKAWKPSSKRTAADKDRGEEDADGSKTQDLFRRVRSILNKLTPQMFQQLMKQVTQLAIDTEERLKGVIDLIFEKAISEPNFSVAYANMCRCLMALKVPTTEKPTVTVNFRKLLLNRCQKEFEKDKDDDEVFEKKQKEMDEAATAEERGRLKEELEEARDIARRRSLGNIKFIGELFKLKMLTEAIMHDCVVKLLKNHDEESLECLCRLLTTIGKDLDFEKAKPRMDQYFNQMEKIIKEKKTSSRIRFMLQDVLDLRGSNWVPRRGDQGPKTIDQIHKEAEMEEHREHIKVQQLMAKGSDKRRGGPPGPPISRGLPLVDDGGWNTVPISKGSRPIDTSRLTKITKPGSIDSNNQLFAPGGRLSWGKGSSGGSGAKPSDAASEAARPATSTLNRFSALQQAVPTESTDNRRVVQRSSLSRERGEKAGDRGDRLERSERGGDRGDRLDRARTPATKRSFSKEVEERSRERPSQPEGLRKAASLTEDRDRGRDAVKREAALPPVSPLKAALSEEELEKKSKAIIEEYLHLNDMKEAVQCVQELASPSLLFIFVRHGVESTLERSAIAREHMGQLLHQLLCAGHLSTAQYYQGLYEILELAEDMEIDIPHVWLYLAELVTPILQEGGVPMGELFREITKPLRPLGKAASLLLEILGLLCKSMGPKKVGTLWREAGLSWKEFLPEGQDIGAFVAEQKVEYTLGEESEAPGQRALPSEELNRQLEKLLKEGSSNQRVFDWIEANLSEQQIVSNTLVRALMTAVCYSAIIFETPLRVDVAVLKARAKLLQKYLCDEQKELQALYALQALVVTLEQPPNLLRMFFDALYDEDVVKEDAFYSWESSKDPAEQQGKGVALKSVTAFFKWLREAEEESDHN

[13] = target: proteins of HEK293T cells transiently overexpressing caspase-6 (Homo sapiens, UniProt Q07020); conditions: Probe; protein RPL18 Q07020
[14] = target: T3, proteins of HEK293T cells transiently overexpressing caspase-6 (Homo sapiens, UniProt Q14103); conditions: protein HNRNPD (Q14103)
T3 sequence (Q14103 1-355): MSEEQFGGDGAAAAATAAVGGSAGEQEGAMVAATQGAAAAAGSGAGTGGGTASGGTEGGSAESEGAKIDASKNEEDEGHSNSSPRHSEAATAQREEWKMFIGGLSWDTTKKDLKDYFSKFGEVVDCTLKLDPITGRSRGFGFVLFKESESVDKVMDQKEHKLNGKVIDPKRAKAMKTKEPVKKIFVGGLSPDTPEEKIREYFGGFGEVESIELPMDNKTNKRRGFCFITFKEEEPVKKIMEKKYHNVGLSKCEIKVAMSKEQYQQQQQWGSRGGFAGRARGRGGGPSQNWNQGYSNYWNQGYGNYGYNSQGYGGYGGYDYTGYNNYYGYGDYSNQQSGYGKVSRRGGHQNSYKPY

[15] = target: proteins of HEK293T cells transiently overexpressing caspase-6 (Homo sapiens, UniProt Q14247); conditions: exp_ref Probe; protein CTTN (Q14247); analysis C6
proteins of HEK293T cells transiently overexpressing caspase-6 (Homo sapiens, UniProt Q14247), sequence (Q14247 whole entry): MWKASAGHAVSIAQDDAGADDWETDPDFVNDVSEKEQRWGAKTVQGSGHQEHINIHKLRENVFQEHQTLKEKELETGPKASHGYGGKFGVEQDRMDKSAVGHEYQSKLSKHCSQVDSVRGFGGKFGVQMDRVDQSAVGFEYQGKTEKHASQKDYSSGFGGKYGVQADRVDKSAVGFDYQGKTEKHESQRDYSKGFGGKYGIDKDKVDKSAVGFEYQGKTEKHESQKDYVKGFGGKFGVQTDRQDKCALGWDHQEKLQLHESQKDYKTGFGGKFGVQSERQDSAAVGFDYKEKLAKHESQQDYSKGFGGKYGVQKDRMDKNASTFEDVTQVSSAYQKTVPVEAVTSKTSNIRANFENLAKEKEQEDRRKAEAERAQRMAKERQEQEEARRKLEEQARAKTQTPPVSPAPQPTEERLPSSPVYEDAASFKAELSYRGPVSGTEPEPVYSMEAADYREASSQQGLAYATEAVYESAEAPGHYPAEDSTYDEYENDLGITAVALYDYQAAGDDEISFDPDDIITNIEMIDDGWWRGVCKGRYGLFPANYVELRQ

[16] = target: proteins of HEK293T cells transiently overexpressing caspase-6 (Homo sapiens, UniProt Q86VP6); conditions: exp_ref Probe; protein CAND1 (Q86VP6); analysis C6
proteins of HEK293T cells transiently overexpressing caspase-6 (Homo sapiens, UniProt Q86VP6), sequence (Q86VP6 whole entry): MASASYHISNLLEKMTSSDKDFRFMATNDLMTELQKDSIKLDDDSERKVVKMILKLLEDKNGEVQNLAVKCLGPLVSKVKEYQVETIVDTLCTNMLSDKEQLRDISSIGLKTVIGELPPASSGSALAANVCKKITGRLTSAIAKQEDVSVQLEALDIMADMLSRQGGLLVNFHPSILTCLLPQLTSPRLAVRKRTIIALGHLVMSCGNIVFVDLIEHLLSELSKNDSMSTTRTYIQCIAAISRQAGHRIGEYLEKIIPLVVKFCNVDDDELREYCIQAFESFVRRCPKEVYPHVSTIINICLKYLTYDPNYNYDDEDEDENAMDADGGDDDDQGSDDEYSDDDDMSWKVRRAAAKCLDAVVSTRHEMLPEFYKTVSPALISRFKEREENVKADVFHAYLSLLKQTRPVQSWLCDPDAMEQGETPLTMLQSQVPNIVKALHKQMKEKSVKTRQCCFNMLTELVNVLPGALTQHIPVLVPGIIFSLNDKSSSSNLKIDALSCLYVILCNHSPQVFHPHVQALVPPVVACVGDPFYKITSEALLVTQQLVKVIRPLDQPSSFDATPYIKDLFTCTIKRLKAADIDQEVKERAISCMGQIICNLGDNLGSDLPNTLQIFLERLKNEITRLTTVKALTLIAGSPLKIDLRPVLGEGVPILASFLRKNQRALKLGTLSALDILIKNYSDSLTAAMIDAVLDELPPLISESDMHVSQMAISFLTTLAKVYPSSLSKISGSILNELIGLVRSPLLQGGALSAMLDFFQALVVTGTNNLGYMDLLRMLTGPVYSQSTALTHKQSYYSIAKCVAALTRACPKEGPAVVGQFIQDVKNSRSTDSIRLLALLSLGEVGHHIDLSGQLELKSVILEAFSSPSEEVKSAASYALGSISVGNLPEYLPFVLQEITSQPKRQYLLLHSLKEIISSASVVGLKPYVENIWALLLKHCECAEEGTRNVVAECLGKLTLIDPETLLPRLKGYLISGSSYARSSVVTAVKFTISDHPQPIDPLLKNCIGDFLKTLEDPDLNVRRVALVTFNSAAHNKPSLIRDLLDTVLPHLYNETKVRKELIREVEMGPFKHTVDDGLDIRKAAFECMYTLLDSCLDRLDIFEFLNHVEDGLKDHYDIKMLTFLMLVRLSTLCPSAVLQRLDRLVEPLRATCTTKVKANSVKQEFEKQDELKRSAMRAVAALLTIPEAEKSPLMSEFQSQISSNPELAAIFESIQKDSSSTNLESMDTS

[17] = target: proteins of HEK293T cells transiently overexpressing caspase-6 (Homo sapiens, UniProt Q99460); conditions: protein PSMD1 (Q99460); exp_ref Probe; analysis C6
[18] = target: proteins of HEK293T cells transiently overexpressing caspase-6 (Homo sapiens, UniProt Q9NX40); conditions: protein OCIAD1 (Q9NX40); exp_ref Probe; analysis C6
[19] = target: proteins of HEK293T cells transiently overexpressing caspase-6 (Homo sapiens, UniProt Q9Y224); conditions: Probe; protein C14orf166 Q9Y224

proteins of HEK293T cells transiently overexpressing caspase-6 (Homo sapiens, UniProt O00571), sequence (O00571 whole entry): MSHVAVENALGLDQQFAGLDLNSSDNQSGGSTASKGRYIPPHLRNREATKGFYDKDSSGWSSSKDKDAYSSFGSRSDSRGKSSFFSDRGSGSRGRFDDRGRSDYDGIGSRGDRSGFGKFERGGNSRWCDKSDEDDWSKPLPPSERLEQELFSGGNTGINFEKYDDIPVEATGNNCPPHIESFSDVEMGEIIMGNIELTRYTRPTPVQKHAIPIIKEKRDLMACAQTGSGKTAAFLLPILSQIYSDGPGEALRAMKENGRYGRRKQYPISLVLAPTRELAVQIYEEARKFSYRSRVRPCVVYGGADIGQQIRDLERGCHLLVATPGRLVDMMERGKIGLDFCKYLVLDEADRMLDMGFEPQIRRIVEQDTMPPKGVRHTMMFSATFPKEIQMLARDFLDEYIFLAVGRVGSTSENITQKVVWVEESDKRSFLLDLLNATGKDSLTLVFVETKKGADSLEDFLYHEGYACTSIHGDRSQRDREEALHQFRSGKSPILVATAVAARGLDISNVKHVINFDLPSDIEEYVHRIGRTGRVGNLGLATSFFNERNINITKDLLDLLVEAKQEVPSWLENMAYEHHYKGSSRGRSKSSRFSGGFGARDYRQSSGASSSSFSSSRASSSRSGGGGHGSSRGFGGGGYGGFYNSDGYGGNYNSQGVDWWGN

Structure (SMILES): C#CCOc1ccc([C@@H]2C[C@@H](C(=O)Nc3ccc(OC(F)(F)F)cc3)CN(S(=O)(=O)C=C)C2)cc1 (relative stereo) [13-t]
- enrich.exp.med [1]: 0.1246
- enrich.exp.med [2]: 1.753
- enrich.exp.med [3]: -8.362
- enrich.exp.med [4]: -0.2081
- enrich.exp.med ([5]; exp_ref Probe, analysis C6): 0.3462
- enrich.exp.med.lin [5]: 1.2712
- enrich.exp.med.log2 [5]: 0.3462
- enrich.exp.med [6]: 0.5323
- enrich.exp.med [7]: 0.3142
- enrich.exp.med [8]: 0.6394
- enrich.exp.med [9]: 0.04694
- enrich.exp.med [10]: -0.1134
- enrich.exp.med ([11]; exp_ref Probe, analysis C6): 0.9895
- enrich.exp.med.lin [11]: 1.986
- enrich.exp.med.log2 [11]: 0.9895
- enrich.exp.med ([12]; exp_ref Probe, analysis C6): 0.9115
- enrich.exp.med.lin [12]: 1.881
- enrich.exp.med.log2 [12]: 0.9115
- enrich.exp.med [13]: -0.6313
- enrich.exp.med ([14]; exp_ref Probe, analysis C6): -0.3533
- enrich.exp.med.lin [14]: 0.7828
- enrich.exp.med.log2 [14]: -0.3533
- enrich.exp.med [15]: -0.3871
- enrich.exp.med [16]: 0.5563
- enrich.exp.med [17]: 1.73
- enrich.exp.med [18]: 2.033
- enrich.exp.med [19]: -1.579
